From ChEMBL document CHEMBL1147240, “Lactones from the leaves of Litsea japonica and their anti-complement activity” (J Nat Prod, 2003)

Test: Inhibition of human serum complement system-mediated hemolysis

SMILES	IC50
CC/C=C/CCCCCCCC/C=C/C1=CC(C)OC1=O (single isomer, unassigned) [LITSEALACTONE A]	787 µM
C=C/C=C/CCCCCCCC/C=C/C1=C[C@H](C)OC1=O [AKOLACTONE B]	58 µM
C#CCCCCCCCC/C=C/C1=C[C@H](C)OC1=O [HAMABIWALACTONE A]	714 µM
C=CCCCCCCCC/C=C/C1=C[C@H](C)OC1=O [HAMABIWALACTONE B]	149 µM
O=C(/C=C/c1ccc(O)c(O)c1)O[C@H](Cc1ccc(O)c(O)c1)C(=O)O [ROSMARINIC ACID]	180 µM
